# Measurements reported in patent US20250339567A1, “COMPOUNDS WITH IMPROVED PHARMACOKINETICS FOR IMAGING AND THERAPY OF CANCER” (priority 2019, published 2025).
# Entries after “also recorded” stand apart in the source; their conditions may differ. Like-named read-outs stand apart in the source and are kept apart here. Starred links: 1 amine or outer side, 2 acyl side, 3 side chain; linkers in the order of their positions; H or OH if unused. Non-standard residues stand in square brackets, D forms with d. Residues, ends and D or L forms follow the SMILES beside them. *: point of attachment. DOTA = O=C(O)CN1CCN(CC(=O)O)CCN(CC(=O)*)CCN(CC(=O)O)CC1; Sta = CC(C)C[C@H](N)[C@@H](O)CC(=O)O; Bta = N[C@@H](Cc1csc2ccccc12)C(=O)O; X1 = O=C(CN1CCC(N[*:1])CC1)[*:2]
# Key:
# [1] = n-Octanol-PBS distribution coefficient, log D7.4; format: physicochemical; settings: n-octanol/PBS pH 7.4; for log D7.4 ± SD (n = 8): 177Lu-labeled ligand
# Experimental: Approximately 1 MBq of the labeled tracer was dissolved in 1 mL of a 1:1 mixture (v/v) of phosphate buffered saline (PBS, pH=7.4) and n-octanol in an Eppendorf tube. After vigorous mixing of the suspension for 3 min at room temperature, the vial was centrifuged at 9000 rpm for 5 min (Biofuge 15, Heraus Sepatech, Osterode, Germany) and 200 μL aliquots of both layers were measured in a γ-counter. The experiment was repeated at least four times.
# [2] = test system: PC-3 tumor-bearing CB17-SCID mice; experiment: Biodistribution in PC-3 tumor-bearing CB17-SCID mice; format: in vivo
# Experimental: All animal experiments were conducted in accordance with general animal welfare regulations in Germany (German animal protection act, as amended on 18 May 2018, Art. 141 G v. 29.3.2017 | 626, approval no. ROB-55.2-2532.Vet_02-18-109) and the institutional guidelines for the care and use of animals. To establish tumor xenografts, PC-3 cells (5×10^6 cells per 200 μL) were suspended in a 1:1 mixture (v/v) of Dulbecco's modified eagle's medium/Ham's F-12 (DMEM/F-12) with Glutamax-I (1:1) and Cultrex® Basement Membrane Matrix Type 3 (Trevigen Inc., Gaithersburg, MD, USA) and inoculated subcutaneously onto the right shoulder of 6-10 weeks old female CB17-SCID mice (Charles River Laboratories International Inc., Sulzfeld, Germany). Mice were used for experiments when tumor volume was 125-500 mm^3 (2-3 weeks after inoculation).
# Approximately 1-5 MBq ([…]) of the radiolabeled GRPR antagonists were injected into the tail vein of PC-3 tumor-bearing mice and sacrificed at 1, 4 or 24 h p.i. (n=4). Selected organs were removed, weighted and measured in a γ-counter (Perkin Elmer, Waltham, MA, USA).
# [3] = target: T1, GRPR (Homo sapiens, UniProt P30550); experiment: Determination of GRPR affinity (IC50), competition with [D-3-[125I]I-Tyr6]MJ9 on PC-3 cells; format: binding
# T1 construct: endogenous in cells; host or cells: PC-3 cells
# T1 sequence (P30550 whole entry): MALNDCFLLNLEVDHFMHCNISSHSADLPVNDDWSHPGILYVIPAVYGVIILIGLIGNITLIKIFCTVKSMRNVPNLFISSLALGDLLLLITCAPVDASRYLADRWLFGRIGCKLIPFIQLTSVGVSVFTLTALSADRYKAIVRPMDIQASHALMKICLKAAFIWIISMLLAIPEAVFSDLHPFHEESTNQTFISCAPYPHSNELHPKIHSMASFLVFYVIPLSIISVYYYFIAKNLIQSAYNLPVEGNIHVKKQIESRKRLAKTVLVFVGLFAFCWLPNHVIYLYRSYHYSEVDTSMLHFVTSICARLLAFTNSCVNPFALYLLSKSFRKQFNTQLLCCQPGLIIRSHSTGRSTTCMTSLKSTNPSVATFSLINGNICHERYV
# Experimental: The reference ligand for IC50 studies ([D-3-[^125I]I-Tyr^6]MJ9) is prepared according to a previously published procedure. Briefly, 0.2 mg of [D-Tyr^6]MJ9 are dissolved in 20 μL Tracepur water and 280 μL TRIS buffer (25 mm TRIS HCl, 0.4 M NaCl, pH=7.9). After addition of the solution to a vial containing 150 μg Iodo-Gen® (1,3,4,6-Tetrachloro-3α,6α-diphenylglycouril, surface-bound), 5.0 μL (16 MBq) [^125I]Nal(74 TBq/mmol, 3.1 GBq/mL, 40 mM NaOH, Hartmann Analytic, Braunschweig, Germany) are added.
# The GRPR-positive PC-3 cells are cultured in Dublecco modified Eagle medium/Nutrition Mixture F-12 with Glutamax-I (1:1) (Invitrigon), supplemented with 10% fetal calf serum and maintained at 37° C. in a humidified 5% CO2 atmosphere.
# After removal of the culture medium, the cells are washed once with 500 μL of HBSS (Hank's balanced salt solution, Biochrom, Berlin, Germany, with addition of 1% bovine serum albumin (BSA)) and left in 200 μL HBSS (1% BSA) for 9 min at room temperature for equilibration. Next, 25 μL per well of solutions, containing either HBSS (1% BSA) as control or the respective ligand in increasing concentration (10^−10 M-10^−4 M in HBSS), are added with subsequent addition of 25 μL of [D-3-[^125I]I-Tyr^6]MJ9 (2.0 nM) in HBSS (1% BSA).
# All experiments are performed in triplicate for each concentration. After 2 h incubation at room temperature, the experiment is terminated by removal of the medium and consecutive rinsing with 300 μL of HBSS. The media of both steps are combined in one fraction and represent the amount of free radiolabeled reference. Afterwards, the cells are lysed with 300 μL of 1 M NaOH for at least 15 min and united with the 300 μL NaOH of the following washing step. Quantification of bound and free radiolabeled reference is accomplished in a γ-counter.
# IC50 determination for each ligand was repeated twice.
# [4] = Plasma studies: metabolic stability in vitro in human plasma (radio RP-HPLC); format: in vitro ADME
# Method in brief: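 Radiotracer incubated in human or murine plasma at 37° C. immediately after labeling, for 72±2 h or 6±0.5 h. Proteins precipitated with ice-cold EtOH and MeCN and centrifuged. Supernatant analysed by radio RP-HPLC.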
# [5] = test system: PC-3 cells; experiment: Internalization into PC-3 cells; format: cell-based; settings: c = 1 nM, 1 h, 37° C., corrected for non-specific binding (10^-3 M [natLu]RM2)
# Experimental: For internalization studies, PC-3 cells are harvested 24±2 h before the experiment and seeded in 24-well plates (1.5×10^5 cells/well, 1 mL). Subsequent to the removal of the culture medium, the cells are washed once with 500 μL DMEM/F-12 (5% BSA) and left to equilibrate at 37° C. for at least 15 min in 200 μL DMEM/F-12 (5% BSA). […] Next, 25 μL of the ^125I/^177Lu-labeled GRPR ligand (10 nm) is added and the cells are incubated at 37° C. for 60 min.
# The experiment is terminated by placing the 24-well plate on ice for 1 min and consecutive removal of the medium. Each well is rinsed with 300 μL ice-cold PBS and the fractions from these first two steps are combined, representing the amount of free radiolabeled reference. Removal of surface bound activity is accomplished by incubation of the cells with 300 μL of ice-cold Acid Wash solution (0.02 M NaOAc, pH=5.0) for 10 min at room temperature and rinsed again with 300 μL of ice-cold PBS. The internalized activity is determined by incubation of the cells in […] NaOH (1 M) and the combination with the fraction of a subsequent washing step with 300 μL NaOH (1 M).
# Each experiment (control and blockade) is performed sixfold. Free, surface bound and internalized activity is quantified in a γ-counter. Data is corrected for non-specific internalization.
# [6] = Plasma studies: metabolic stability in vitro in murine plasma (radio RP-HPLC); format: in vitro ADME; settings: 37° C.
# Experimental: Metabolic stability in vitro was determined applying a procedure published by Linder et al. that was slightly modified. Immediately after labeling, human (200 μL) or murine (100 μL) plasma was added and the mixture was incubated at 37° C. for 72±2 h (or 6±0.5 h). Proteins were precipitated by treatment with ice-cold EtOH (150 μL [human], 100 μL [murine]) and ice-cold MeCN (450 μL [human], 300 μL [murine]), followed by centrifugation for 20 min at 13000 rpm. The supernatants were decanted and further analyzed using radio RP-HPLC.
# Therefore, only 100 μL of murine plasma was added to the tracer solution (final volume of 200 μL) immediately after labeling was finished. According to Linder et al. (Bioconjugate Chem. 20, 1171-1178 (2009)), metabolism is more rapid in murine than in human plasma for which reason the experiment was terminated after incubation at 37° C. for 6±0.5 h (FIGS. 5 and 6). Nevertheless, due to a smaller volume the murine mixture was additionally examined after incubation at 37° C. for 72±2 h (FIGS. 7 and 8).
# [7] = IC50 [nM] ± SD (n = 3), ^177Lu-labeled, Table 1C, GRPR affinity
# [8] = IC50 ± SD (n = 3), Table 3, [D-3-[125I]I-Tyr6]MJ9 (c = 0.2 nM), 2 h, r.t., HBSS + 1% BSA
# [9] = human plasma, 37° C., 72±2 h, FIGS. 1-4
"log D7.4 (n = 6), ^99mTc-labeled [1]","IC50 [3, 7]","IC50 [3, 8]",Amount of intact tracer after incubation in human plasma for 72 ± 2 h (n = 2) [4],"metabolite, first-eluting peak in chromatogram [4]","metabolite, second peak in chromatogram [4]","remaining intact tracer in chromatogram ([4]; human, plasma, 2 h)",log D7.4 ± SD (n = 8) [1],SMILES,"Specific internalization (mean ± SD, n = 6) [5]",also measured
−1.29 ± 0.08,,,,,,,,CC(C)C[C@H](NC(=O)C[C@H](O)[C@H](CC(C)C)NC(=O)[C@H](Cc1c[nH]cn1)NC(=O)CNC(=O)[C@@H](NC(=O)[C@H](C)NC(=O)[C@](C)(Cc1c[nH]c2ccccc12)NC(=O)[C@H](CCC(N)=O)NC(=O)[C@@H](Cc1ccccc1)NC(=O)CN1CCC(NC(=O)C(CNCCN)CNCCN)CC1)C(C)C)C(N)=O [N4-[α-Me-Trp^8]MJ9],,"tumor accumulation at 4 h p.i. compared to 1 h p.i. ([2]; mouse, in vivo): enhanced tumor accumulation compared to 1 h p.i."
,,1.33 ± 0.36 nM,,,,,,"CC(C)C[C@H](NC(=O)C[C@H](O)[C@H](CC(C)C)NC(=O)[C@H](Cc1c[nH]cn1)NC(=O)CNC(=O)[C@@H](NC(=O)[C@H](C)NC(=O)[C@H](Cc1c[nH]c2ccccc12)NC(=O)[C@H](CCC(N)=O)NC(=O)[C@@H](Cc1ccc(O)c(I)c1)NC(=O)CN1CCC(N)CC1)C(C)C)C(N)=O [[D-3-I-Tyr^6]MJ9, reference compound]",3.57 ± 0.57 % of the used activity,"IC50 ± SD (n = 3) ([3]; Table 3, [D-3-[125I]I-Tyr6]MJ9 (c = 0.2 nM), 2 h, r.t., HBSS + 1% BSA): particularly high affinity"

# Continued, molecule first:
SMILES,"log D7.4 (n = 6), ^99mTc-labeled [1]","IC50 [3, 7]","IC50 [3, 8]",Amount of intact tracer after incubation in human plasma for 72 ± 2 h (n = 2) [4],"metabolite, first-eluting peak in chromatogram [4]","metabolite, second peak in chromatogram [4]","remaining intact tracer in chromatogram ([4]; human, plasma, 2 h)",log D7.4 ± SD (n = 8) [1],"Specific internalization (mean ± SD, n = 6) [5]",also measured
CC(C)C[C@H](NC(=O)C[C@H](O)[C@H](CC(C)C)NC(=O)[C@H](Cc1c[nH]cn1)NC(=O)CNC(=O)[C@@H](NC(=O)[C@H](C)NC(=O)[C@H](Cc1csc2ccccc12)NC(=O)[C@H](CCC(N)=O)NC(=O)[C@@H](Cc1ccccc1)NC(=O)CN1CCC(NC(=O)CN2CCN(CC(=O)O)CCN(CC(=O)O)CCN(CC(=O)O)CC2)CC1)C(C)C)C(N)=O [DOTA-[Bta^8]MJ9] ({DOTA}-[X1][dF]Q[Bta]AVGH[Sta]L-NH2),,4.6 ± 0.2 nM,4.63 ± 0.23 nM,18.3 ± 2.3,79%,8%,12%,−1.81 ± 0.02,2.26 ± 0.18 % of the used activity,
CC(C)C[C@H](NC(=O)C[C@H](O)[C@H](CC(C)C)NC(=O)[C@H](Cc1c[nH]cn1)NC(=O)CNC(=O)[C@@H](NC(=O)[C@H](C)NC(=O)[C@H](Cc1c[nH]c2ccccc12)NC(=O)[C@H](CCO)NC(=O)[C@@H](Cc1ccccc1)NC(=O)CN1CCC(NC(=O)C(CNCCN)CNCCN)CC1)C(C)C)C(N)=O [N4-[Hse^7]MJ9],−1.26 ± 0.02,,,,,,,,,"IC50 ([3]; IC50 [nM] ± SD (n = 3), Table 5, non-labeled N4 ligands, [D-3-[125I]I-Tyr6]MJ9 (c = 0.2 nM), 2 h, r.t.): 6.97 ± 1.84 nM; tumor-to-background ratios ([2]; mouse, in vivo): highest"
"CC(C)C[C@H](NC(=O)C[C@H](O)[C@H](CC(C)C)NC(=O)[C@H](Cc1c[nH]cn1)NC(=O)CNC(=O)[C@@H](NC(=O)[C@H](C)NC(=O)[C@H](Cc1c[nH]c2ccccc12)NC(=O)[C@H](CCC(N)=O)NC(=O)[C@@H](Cc1ccccc1)NC(=O)CN1CCC(NC(=O)CN2CCN(CC(=O)O)CCN(CC(=O)O)CCN(CC(=O)O)CC2)CC1)C(C)C)C(N)=O [RM2, DOTA-Pip-D-Phe-Gln-Trp-Ala-Val-Gly-His-Sta-Leu-NH2]",,,,,,,,,,"Amount of intact tracer after incubation in human plasma for 72 ± 2 h (n = 2) ([4]; Table 1C, 177Lu-labeled, 37° C., 72 ± 2 h, in % (unit assumed)): 33.5 ± 2.7; amount of intact tracer (in vitro stability), mean ± SD ([4]; human plasma, 37° C., 72±2 h): 33.5±2.7%; metabolite, first-eluting peak in chromatogram [4, 9]: 54%; metabolite, second peak in chromatogram [4, 9]: 9%; remaining intact tracer in chromatogram ([4]; human plasma, 37° C., 72±2 h, single chromatogram (FIGS. 1-4)): 36%; metabolite, first-eluting peak in chromatogram ([6]; 6±0.5 h): 2%; metabolite, second peak in chromatogram ([6]; 6±0.5 h): 2%; metabolite, third peak in chromatogram ([6]; 6±0.5 h): 4%; remaining intact tracer in chromatogram ([6]; 6±0.5 h, FIGS. 5-6): 92%; remaining intact tracer in chromatogram ([6]; 72±2 h, FIGS. 7-8): 67%; tumor retention ([2]; 177Lu-labeled, 24 h p.i., 100 pmol, FIGS. 11, 18, listed as [^177Lu]RM2): high amounts; also recorded: higher tumor retention than the other derivatives of this series"
CC(C)C[C@H](NC(=O)C[C@H](O)[C@H](CC(C)C)NC(=O)[C@H](Cc1c[nH]cn1)NC(=O)CNC(=O)[C@@H](NC(=O)[C@H](C)NC(=O)[C@H](Cc1c[nH]c2ccccc12)NC(=O)[C@H](CCO)NC(=O)[C@@H](Cc1ccccc1)NC(=O)CN1CCC(NC(=O)CN2CCN(CC(=O)O)CCN(CC(=O)O)CCN(CC(=O)O)CC2)CC1)C(C)C)C(N)=O [DOTA-[Hse^7]MJ9],,19.7 ± 1.6 nM,,40.1 ± 1.4,30%,8%,56%,−2.25 ± 0.06,1.40 ± 0.16 % of the used activity,
